The source of these data is US9834823B2, “Primers, assays and methods for detecting an E. coli subtype” (priority 2012, dated 2017).

In experiment [1] the test system is extraintestinal Escherichia coli isolates. The experiment is described as follows: Antimicrobial susceptibility testing (CLSI breakpoints), Olmsted County isolates. To be noted: for Resistance prevalence among H30 ST131: H30 ST131 subclone, N = 70; for Resistance prevalence among non-H30 ST131: non-H30 ST131, N = 10. Format: cell-based.
Experiment [2] concerns Escherichia coli clinical isolates from U.S. veterans. The experiment is described as follows: Susceptibility testing (broth microdilution or disk diffusion) at VAMCs with population back-calculations. To be noted: for Prevalence of resistance, H30 ST131: H30 ST131 subclone isolates (H30 subclone vs. others); for Prevalence of resistance, ST131: ST131 isolates (ST131 vs. others); for Prevalence of resistance, Total (%): all isolates; for Estimated fraction due to ST131: fraction of resistance phenotype due to ST131; for Overall prevalence in population, %: resistance phenotype, back-calculated with 29% FQ resistance. Format: cell-based.

Where [3] appears, read: all non-H30 isolates (H30 subclone vs. others).
Where [4] appears, read: all non-ST131 isolates (ST131 vs. others).
Setting [5] is: resistance prevalence among H30 ST131 subclone isolates relative to all other isolates.
[6] abbreviates: resistance prevalence among ST131 isolates relative to all other isolates.

Turning to `C[C@@H](O)[C@H]1C(=O)N2C(C(=O)O)=C(SCCN=CN)C[C@H]12` [Imipenem, imipenem], the “No. of resistant isolates (column %)” value in experiment [1] (All isolates, N = 299) is 3 (1); in experiment [1] (Other STs, N = 129), 1 (1); in experiment [1] (ST9, N = 32), 0; in experiment [1] (ST69, N = 15) it was 0; in experiment [1] (ST73, N = 25) it was 0; in experiment [1] (ST127, N = 18), 2 (14). Besides, the “No. of resistant isolates (column %)” value in experiment [1] (ST131, N = 80) is 0. Moreover, in experiment [2], the “Prevalence of resistance, H30 ST131” value was 0.5. For the same molecule, the “Prevalence of resistance, ST131” value in experiment [2] was 0.4. In experiment [2], the “Prevalence of resistance, Total (%)” value is 0.25%. The “Prevalence of resistance, Others (%)” value in experiment [2] (setting [3]) and in experiment [2] (setting [4]) was 0.2% in each case. Besides, the “Estimated fraction due to ST131” value in experiment [2] is “.50”. The “Overall prevalence in population, %” value in experiment [2] is listed as 0.25%. Also, the “Prevalence ratio of resistance” value in experiment [2] (setting [5]) and in experiment [2] (setting [6]) was 1.4 each time.

In the case of `O=C1CN(/N=C/c2ccc([N+](=O)[O-])o2)C(=O)N1` [Nitrofurantoin, nitrofurantoin], the “No. of resistant isolates (column %)” value is 8 (3) in experiment [1] (All isolates, N = 299); 3 (2) in experiment [1] (Other STs, N = 129); 1 (3) in experiment [1] (ST9, N = 32); 0 in experiment [1] (ST69, N = 15); 1 (4) in experiment [1] (ST73, N = 25); 0 in experiment [1] (ST127, N = 18). Moreover, in experiment [1] (ST131, N = 80), the “No. of resistant isolates (column %)” value is listed as 3 (4). Further, in experiment [1], the “Resistance prevalence among H30 ST131” value is 3%. In experiment [1], the “Resistance prevalence among non-H30 ST131” value is 13%. Besides, the “Prevalence of resistance, H30 ST131” value in experiment [2] is given as 8. The “Prevalence of resistance, ST131” value in experiment [2] is 8. Further, the “Prevalence of resistance, Total (%)” value in experiment [2] was 6%. Moreover, the “Prevalence of resistance, Others (%)” value in experiment [2] (setting [3]) and in experiment [2] (setting [4]) was 5% each time. Also, in experiment [2], the “Estimated fraction due to ST131” value is recorded as “.36”. Further, in experiment [2], the “Overall prevalence in population, %” value is reported as 6%. The “Prevalence ratio of resistance” value in experiment [2] (setting [5]) was 3.4; in experiment [2] (setting [6]), 3.2.

ampicillin/sulbactam: in experiment [2], the “Prevalence of resistance, H30 ST131” value is given as 57; the “Prevalence of resistance, ST131” value was 58; the “Prevalence of resistance, Total (%)” value is 34%; the “Estimated fraction due to ST131” value is “.48”. For the same molecule, in experiment [2], the “Overall prevalence in population, %” value was 34%. Moreover, the “Prevalence of resistance, Others (%)” value in experiment [2] (setting [3]) was 27%. Further, in experiment [2] (setting [4]), the “Prevalence of resistance, Others (%)” value is on record as 24%. In experiment [2] (setting [5]), the “Prevalence ratio of resistance” value was 2.1. Besides, in experiment [2] (setting [6]), the “Prevalence ratio of resistance” value is given as 2.4.

piperacillin/tazobactam: the “No. of resistant isolates (column %)” value is 6 (2) in experiment [1] (All isolates, N = 299); 2 (2) in experiment [1] (Other STs, N = 129); 0 in experiment [1] (ST9, N = 32); 0 in experiment [1] (ST69, N = 15); 2 (8) in experiment [1] (ST73, N = 25); 1 (6) in experiment [1] (ST127, N = 18). The “No. of resistant isolates (column %)” value in experiment [1] (ST131, N = 80) was 1 (1). In addition, the “Resistance prevalence among H30 ST131” value in experiment [1] amounted to 1%. The “Resistance prevalence among non-H30 ST131” value in experiment [1] is recorded as 0%.
